Assay results from ChEMBL document CHEMBL2029284, “Synthesis and biological evaluation of ticagrelor derivatives as novel antiplatelet agents” (2012).
The source made the active and inactive calls. The rule behind the calls is not given here.

Test system: Rattus norvegicus
Assay: Antiplatelet activity in Sprague-Dawley rat assessed as ex-vivo inhibition of ADP-induced platelet aggregation at 5 mg/kg, po at 0.5 hrs by Born's method relative to vehicle-treated control
Assay type: functional

| SMILES | inhibition | inhibition in vivo at 5 mg/kg [%] |
| --- | --- | --- |
| CCCSc1nc(N[C@@H]2C[C@H]2c2ccc(F)c(F)c2)c2nnn([C@@H]3C[C@H](OCCOC(=O)c4cccnc4)[C@@H](O)[C@H]3O)c2n1 | inactive |  |
| CCCSc1nc(N[C@@H]2C[C@H]2c2ccc(F)c(F)c2)c2nnn([C@@H]3C[C@H](OC(=O)OCC)[C@@H](O)[C@H]3O)c2n1 |  | 42.5 |
| CCCSc1nc(N[C@@H]2C[C@H]2c2ccc(F)c(F)c2)c2nnn([C@@H]3C[C@H](OCCOC(=O)OCC)[C@@H](O)[C@H]3O)c2n1 |  | 47.7 |
| CCCSc1nc(N[C@@H]2C[C@H]2c2ccc(F)c(F)c2)c2nnn([C@@H]3C[C@H](OC(=O)c4ccccc4)[C@@H](O)[C@H]3O)c2n1 |  | 20.1 |
| CCCSc1nc(N[C@@H]2C[C@H]2c2ccc(F)c(F)c2)c2nnn([C@@H]3C[C@H](OCCOC(=O)c4ccccc4)[C@@H](O)[C@H]3O)c2n1 | inactive |  |
| CCCSc1nc(N[C@@H]2C[C@H]2c2ccc(F)c(F)c2)c2nnn([C@@H]3C[C@H](OCCOC(=O)C(C)(C)C)[C@@H](O)[C@H]3O)c2n1 |  | 46.1 |
| CCCSc1nc(N[C@@H]2C[C@H]2c2ccc(F)c(F)c2)c2nnn([C@@H]3C[C@H](OC(=O)OCC(C)C)[C@@H](O)[C@H]3O)c2n1 |  | 13.2 |
| CCCSc1nc(N[C@@H]2C[C@H]2c2ccc(F)c(F)c2)c2nnn([C@@H]3C[C@H](OC(=O)C(C)(C)C)[C@@H](O)[C@H]3O)c2n1 | inactive |  |
| CCCSc1nc(N[C@@H]2C[C@H]2c2ccc(F)c(F)c2)c2nnn([C@@H]3C[C@H](O)[C@@H](O)[C@H]3O)c2n1 |  | 45.7 |
| CCCSc1nc(N[C@@H]2C[C@H]2c2ccc(F)c(F)c2)c2nnn([C@@H]3C[C@H](OC(=O)CCC)[C@@H](O)[C@H]3O)c2n1 |  | 28.5 |
| CCCSc1nc(N[C@@H]2C[C@H]2c2ccc(F)c(F)c2)c2nnn([C@@H]3C[C@H](OCCO)[C@@H](O)[C@H]3O)c2n1 [TICAGRELOR] |  | 66.3 |
| CCCSc1nc(N[C@@H]2C[C@H]2c2ccc(F)c(F)c2)c2nnn([C@@H]3C[C@H](OC(=O)CC)[C@@H](O)[C@H]3O)c2n1 |  | 44.5 |
| CCCSc1nc(N[C@@H]2C[C@H]2c2ccc(F)c(F)c2)c2nnn([C@@H]3C[C@H](OCCOC(=O)CCC)[C@@H](O)[C@H]3O)c2n1 | inactive |  |
